Measured values: article PMC4307180, “Overcoming myelosuppression due to synthetic lethal toxicity for FLT3-targeted acute myeloid leukemia therapy” (eLife, 2014)
“Also recorded” adds a separate entry of the source.

Assays:
HMC1.1 cells (KIT V560G) = assay: Cell proliferation/viability assay, HMC1.1; type: cell-based, human
Experimental: (§1) Exponentially growing cells (5 × 10^3 cells per well) were plated in each well of a 96-well plate with 0.1 ml of RPMI 1640 + 10% (vol/vol) FCS containing the appropriate concentration of drug in triplicate, and cell viability was assessed after 48 hr as previously described ([Smith et al., 2012]). […] Log10-scale transformation of ratios, followed by conditional formatting using xcel spreadsheet software yielded the colored diagrams shown.

[1] = test system: Molm14 cells (FLT3-ITD heterozygous); assay: Cell proliferation/viability assay, Molm14; type: cell-based; conditions: Homo sapiens, MOLM-14, 48 hr, ± SEM
Experimental: as §1

[2] = test system: MV4;11 cells (FLT3-ITD homozygous); assay: Cell proliferation/viability assay, MV4;11; type: cell-based; conditions: Homo sapiens, 48 hr, ± SEM
Experimental: as §1

Ba/F3 Parental + IL3 = assay: Ba/F3 cell viability, Parental + IL3; type: cell-based; conditions: Mus musculus, BaF3; Ba/F3, 48 hr, ± SEM
Experimental: (§2) Stable Ba/F3 lines were generated by retroviral spinfection with the appropriate mutated plasmid as previously described ([Smith et al., 2012]).
as §1

Ba/F3 FLT3 ITD + D835H = assay: Ba/F3 cell viability, FLT3 ITD + D835H; type: cell-based; conditions: Mus musculus, Ba/F3, 48 hr, ± SEM
Experimental: as §2, §1
(§3) Mutations isolated in the screen were engineered into pMSCVpuroFLT3–ITD by QuikChange mutagenesis (Stratagene, La Jolla, CA) as previously described ([Smith et al., 2012]).

Ba/F3 FLT3 D835Y = assay: Ba/F3 cell viability, FLT3 D835Y; type: cell-based; conditions: Mus musculus, BaF3; Ba/F3, 48 hr, ± SEM
Experimental: as §2, §1, §3

PDGFRβ = PDGFRβ (Homo sapiens, UniProt P09619); assay: Reaction Biology Corp kinase assay at Km-ATP (Figure 1C), PDGFRβ
Ba/F3 FLT3 D835V = assay: Ba/F3 cell viability, FLT3 D835V; type: cell-based; conditions: Mus musculus, BaF3; Ba/F3, 48 hr, ± SEM
Experimental: as §2, §1, §3

[3] = test system: mpo+ myeloid cells in zebrafish embryos; assay: Zebrafish normal myelopoiesis, mpo WISH in posterior blood island; type: in vivo, Danio rerio (zebrafish); conditions: 10 μM, 6 to 30 hpf, read at 30 hpf, vs DMSO
Experimental: Figure 4. […] (N–P) Three categories of mpo transcription (N, normal; O, intermediate; P, severe) were defined based on the WISH results (three experiments). […] Scale bar equals 500 μm. Blue arrows indicate the pericardial edema, green arrows indicate tail shortening and curving, and red arrows indicate the FLT3-ITD AML mpo+ myeloid cells expansion. […] For all experiments: Zebrafish embryos were collected and kept in standard E3 medium at 28°C. Different concentrations of either drug were added to the E3 medium from 6 hr post fertilization (hpf) to 3 days post fertilization (dpf). Embryos treated with DMSO or 10 μM drug from 6 to 30 hpf were collected for mpo whole mount in situ hybridization (WISH) analysis. […] plasmid DNA containing FLT3/ITD sequence was microinjected into one-cell stage embryos, and the uninjected embryos were used as control. FLT3/ITD-injected embryos were treated with DMSO or 10 μM drug from 6 to 30 hpf.
Wild-type (WT) zebrafish were maintained under standard conditions, and embryos were staged as described ([He et al., 2014]). The study was approved by the Committee of the Use of Live Animals for Teaching and Research in The University of Hong Kong.

Ba/F3 FLT3 ITD = assay: Ba/F3 cell viability, FLT3 ITD; type: cell-based; conditions: Mus musculus, Ba/F3, 48 hr, ± SEM
Experimental: as §2, §1, §3

Ba/F3 FLT3 ITD + F691L = assay: Ba/F3 cell viability, FLT3 ITD + F691L; type: cell-based; conditions: Mus musculus, Ba/F3, 48 hr, ± SEM
Experimental: as §2, §1, §3

[4] = test system: normal bone marrow (BM) and stimulated peripheral blood (SPB) hematopoietic progenitors; assay: Colony-forming assay, normal BM and stimulated peripheral blood; type: cell-based, human
Text: (§4) Primary AML blood samples and/or marrow aspirates were obtained on an IRB-approved protocol at the University of California, San Francisco. Informed consent was obtained in accordance with the Declaration of Helsinki. Mononuclear cells were purified by density centrifugation (Ficoll–Paque Plus, GE Healthsciences) before cryopreservation in 10% (vol/vol) DMSO or FCS (primary ITD and D835-mutant assays, Figure 3A–C) or immediate use in assays (Normal BM and SPB, Figure 3D–F). Normal BM and stimulated peripheral blood (SPB) samples were collected from donors at the UCSF oncology/hematology division. Cells were then suspended in MethoCult methylcellulose (Stem Cell Technologies, product no. H4435 Enriched, Canada) in 15-ml Falcon tubes, vigorously vortexed, bubbles settled over 10 min. Triplicates then plated via blunt-nosed syringe (1.1 ml each) into 3-cm dishes, avoiding bubble generation, and each dish placed in a larger 10-cm dish with water trough in an incubator (37°C, 5% CO2) for 13–14 days. Colonies were counted individually using traditional microscopy. CFU and BFU types reported separately (CFU-GEMM colonies counted as one of each). Results shown for FLT3 ITD primary blasts (Figure 3B) are a combination of leukemic blast colonies and BFU colonies.

Ba/F3 FLT3 ITD + A848P = assay: Ba/F3 cell viability, FLT3 ITD + A848P; type: cell-based; conditions: Mus musculus, Ba/F3, 48 hr, ± SEM
Experimental: as §2, §1, §3

[5] = test system: primary patient FLT3-ITD+ AML circulating blasts; assay: Colony-forming assay, primary patient FLT3-ITD+ AML blasts; type: cell-based, human
Text: as §4, with “each).” for “each). Results shown for FLT3 ITD primary blasts (Figure 3B) are a combination of leukemic blast colonies and BFU colonies.”

Ba/F3 FLT3 ITD + D835Y = assay: Ba/F3 cell viability, FLT3 ITD + D835Y; type: cell-based; conditions: Mus musculus, Ba/F3, 48 hr, ± SEM
Experimental: as §2, §1, §3

Sequence of PDGFRβ (P09619 33-1106): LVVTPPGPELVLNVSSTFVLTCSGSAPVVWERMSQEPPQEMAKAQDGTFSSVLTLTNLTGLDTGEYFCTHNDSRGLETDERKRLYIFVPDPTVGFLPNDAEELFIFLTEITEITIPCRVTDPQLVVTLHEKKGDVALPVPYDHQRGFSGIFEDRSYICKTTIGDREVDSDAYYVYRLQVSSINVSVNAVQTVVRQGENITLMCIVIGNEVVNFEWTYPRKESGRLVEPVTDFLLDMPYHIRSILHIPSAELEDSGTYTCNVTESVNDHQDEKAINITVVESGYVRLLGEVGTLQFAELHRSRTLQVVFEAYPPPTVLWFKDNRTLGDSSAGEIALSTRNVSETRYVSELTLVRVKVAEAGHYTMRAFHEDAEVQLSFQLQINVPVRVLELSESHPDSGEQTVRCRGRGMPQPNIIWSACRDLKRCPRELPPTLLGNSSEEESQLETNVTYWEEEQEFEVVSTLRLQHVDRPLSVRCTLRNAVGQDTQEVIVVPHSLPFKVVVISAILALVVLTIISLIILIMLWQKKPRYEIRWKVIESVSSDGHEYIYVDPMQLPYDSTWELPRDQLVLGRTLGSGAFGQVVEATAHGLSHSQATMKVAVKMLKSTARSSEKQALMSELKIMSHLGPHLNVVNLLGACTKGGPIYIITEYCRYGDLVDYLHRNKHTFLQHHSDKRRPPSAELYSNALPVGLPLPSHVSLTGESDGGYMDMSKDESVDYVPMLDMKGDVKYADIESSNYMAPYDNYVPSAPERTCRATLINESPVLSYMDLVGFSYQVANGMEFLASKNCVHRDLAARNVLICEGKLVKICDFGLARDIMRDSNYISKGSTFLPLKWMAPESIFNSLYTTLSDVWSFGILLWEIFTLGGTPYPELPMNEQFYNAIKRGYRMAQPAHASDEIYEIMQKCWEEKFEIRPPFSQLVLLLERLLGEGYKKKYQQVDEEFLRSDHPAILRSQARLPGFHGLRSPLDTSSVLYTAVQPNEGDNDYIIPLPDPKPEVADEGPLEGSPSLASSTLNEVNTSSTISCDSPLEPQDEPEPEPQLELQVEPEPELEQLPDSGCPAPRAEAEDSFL

With `CC1NC(=O)c2c1c1c3ccccc3n(CCCN)c1c1[nH]c3ccccc3c21` (stereo not shown) [Star 27] the IC50 (HMC1.1 cells (KIT V560G); Homo sapiens, Kit V560 G, 48 hr, ± SEM) was greater than 5000 nM, the “selectivity window HMC1.1/MV4;11” value (HMC1.1 cells (KIT V560G); ratio of proliferation IC50s) was greater than 122 fold and the IC50 [1] was 57 ± 8 nM. It also gave an IC50 [2] of 41 ± 6 nM, an IC50 (Ba/F3 Parental + IL3) of 2300 nM and an IC50 (Ba/F3 FLT3 ITD + D835H) of 48 ± 29 nM. The IC50 (Ba/F3 FLT3 D835Y) was 18 ± 12 nM, the IC50 (PDGFRβ) was 80 ± 11 nM and the IC50 (Ba/F3 FLT3 D835V) was 19 ± 3 nM. For the same molecule, the “effect on mpo+ myeloid cells development in the PBI” value [3] was “no statistically significant change; also recorded: non-significant difference”, the IC50 (Ba/F3 FLT3 ITD) was 57 ± 45 nM and the IC50 (Ba/F3 FLT3 ITD + F691L) was 144 ± 97 nM. For the same molecule, the “raw colony numbers, normal BM, BFUs” value ([4]; all Star 27-treated conditions) was “ca. 400”, the “raw colony numbers, normal BM, CFUs” value ([4]; all Star 27-treated conditions) was “ca. 300” and the “effect on normal hematopoietic colony formation (CFU and BFU)” value ([4]; normal BM and SPB donors, up to 1,000 nM) was “no effect on hematopoiesis up to 1,000 nM; also recorded: no significant effect up to a concentration of 1,000 nM”. The IC50 (Ba/F3 FLT3 ITD + A848P) was 53 ± 31 nM, the inhibition at 1 µM ([5]; Homo sapiens, at 1000 nM, read-out: inhibition of colony formation, FLT3-ITD+ blasts) was greater than 80% and the “raw colony numbers, FLT3-ITD+ blasts” value ([5]; at 1,000 nM, ca. 1,200 CFUs in DMSO plates) was “ca. 20”. It also gave an IC50 (Ba/F3 FLT3 ITD + D835Y) of 39 ± 24 nM.
